Test results published in patent US8653087B2, “Pyrido [5, 4-D] pyrimidines as cell proliferation inhibitors” (Boehringer Ingelheim International GmbH, priority 2008, dated 2014).

Target: B-Raf (V600E)-kinase (Homo sapiens (Human), UniProt P15056, V600E)
Experiment: Kinase test B-RAF (V600E)
Type: biochemical
Settings: B-RAF (V600E) kinase test, 250 μM ATP
Outline: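 B-Raf (V600E) (0.5 ng) preincubated with compound 24 h at RT (5% DMSO), then reacted 60 min at RT with 250 μM ATP and biotinylated MEK1 as substrate. Phospho-MEK (Ser217/221) captured on streptavidin and detected by europium time-resolved fluorescence; IC50 from dose-response curves.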

Chain of B-Raf (V600E)-kinase (P15056 whole entry V600E): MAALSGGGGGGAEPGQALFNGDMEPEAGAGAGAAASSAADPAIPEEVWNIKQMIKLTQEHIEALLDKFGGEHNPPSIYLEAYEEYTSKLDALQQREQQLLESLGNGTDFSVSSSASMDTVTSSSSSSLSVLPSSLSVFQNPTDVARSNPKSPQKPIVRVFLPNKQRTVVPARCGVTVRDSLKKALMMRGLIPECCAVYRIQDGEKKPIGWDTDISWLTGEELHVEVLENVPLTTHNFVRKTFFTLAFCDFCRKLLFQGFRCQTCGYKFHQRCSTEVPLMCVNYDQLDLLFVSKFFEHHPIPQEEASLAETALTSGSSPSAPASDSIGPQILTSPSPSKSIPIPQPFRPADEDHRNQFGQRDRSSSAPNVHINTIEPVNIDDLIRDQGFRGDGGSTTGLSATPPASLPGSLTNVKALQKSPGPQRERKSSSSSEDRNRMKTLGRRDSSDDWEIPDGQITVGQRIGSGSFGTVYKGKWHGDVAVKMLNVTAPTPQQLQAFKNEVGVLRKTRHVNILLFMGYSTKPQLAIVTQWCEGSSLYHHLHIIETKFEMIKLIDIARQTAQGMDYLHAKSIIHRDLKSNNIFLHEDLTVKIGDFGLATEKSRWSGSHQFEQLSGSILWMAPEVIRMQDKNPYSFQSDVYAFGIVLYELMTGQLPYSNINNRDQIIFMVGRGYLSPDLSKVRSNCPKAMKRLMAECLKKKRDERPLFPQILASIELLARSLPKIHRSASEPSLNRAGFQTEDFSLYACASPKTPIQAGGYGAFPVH

Row | Compound | IC50
1 | CCN1CCN(c2cc(NC(=O)c3ccc(C)c(Nc4ncnc5c(N)nc(N(C)C)nc45)c3)cc(C(F)(F)F)c2)CC1 [I-79] | 19 nM
2 | CN(CCN1CCCC1)c1ncc2ncnc(Nc3cc(C(=O)Nc4cc(C(C)(C)C)on4)ccc3F)c2n1 [III-317] | 14 nM
3 | Cc1ccc(C(=O)Nc2cc(N3CCN(C)CC3)c(F)c(C(F)(F)F)c2)cc1Nc1ncnc2cnc(N3CC[C@H](F)C3)nc12 [III-511] | 4 nM
4 | CNc1ncnc2c(Nc3cc(NC(=O)c4cccc(C(C)(C)C#N)c4)ccc3C)ncnc12 [VIII-1] | < 1 nM
5 | CC(C)(C)c1cc(NC(=O)c2ccc(C(F)(F)F)c(Nc3ncnc4cnc(N5CCCCC5)nc34)c2)no1 [III-61] | 2240 nM
6 | Cc1ccc(C(=O)Nc2cc(C(C)(C)C)nn2C)cc1Nc1ncnc2cnc(N3CCOCC3)nc12 [III-513] | 1 nM
7 | Cc1ccc(C(=O)Nc2cccc(C(F)(F)F)c2)cc1Nc1ncnc2c(N)nc(N3C[C@H]4C[C@@H]3CN4C)nc12 [I-65] | < 1 nM
8 | CN1CCCN(c2nc(N)c3ncnc(Nc4cccc(C(=O)Nc5cccc(C(F)(F)F)c5)c4)c3n2)CC1 [I-20] | 50 nM
